Values of other authors in US10610489B2, “Pharmaceutical composition, pharmaceutical dosage form, process for their preparation, methods for treating and uses thereof” (Boehringer Ingelheim International GmbH, priority 2009, dated 2020).

Test system: HbA1c
Details: metformin on its own, in the diabetic

SMILES: CN(C)C(=N)N=C(N)N [metformin, dimethyldiguanide]
- average improvement in the HbA1c value: 1.0-1.5%
